Patent publication US8288367B2, “Substituted estratriene derivatives as 17BETA HSD inhibitors” (Solvay Pharmaceuticals GmBH, priority 2006, dated 2012)

Columns and labels:
[1] = target: T1, 17β-HSD3 enzyme (Homo sapiens, UniProt P37058); test: Inhibition of 17β-HSD type 3 enzyme in MCF-7 cells stably expressing 17β-HSD3 (HPLC); format: cell-based; settings: MCF7, MCF-7 cells expressing 17β-HSD3, 2 nM androstenedione; for inhibition at 1 µM: 1 μM compound; for inhibition at 10 µM: 10 μM compound
T1 construct: expressed in transfected cells; host or cells: MCF-7 cell lines stably expressing 17β-HSD3
T1 sequence (P37058 1-310): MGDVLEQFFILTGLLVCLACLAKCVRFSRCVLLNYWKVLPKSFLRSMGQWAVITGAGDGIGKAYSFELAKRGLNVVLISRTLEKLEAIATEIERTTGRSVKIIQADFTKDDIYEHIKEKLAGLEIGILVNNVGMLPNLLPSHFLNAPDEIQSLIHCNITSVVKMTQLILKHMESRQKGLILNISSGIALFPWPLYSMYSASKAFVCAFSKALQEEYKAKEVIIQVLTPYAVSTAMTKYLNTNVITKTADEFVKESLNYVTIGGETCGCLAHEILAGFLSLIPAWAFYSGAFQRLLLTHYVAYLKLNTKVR
Description: The compounds were screened in respect of 17β-HSD3 enzyme activity in vitro on established MCF-7 cell lines, each stably expressing the 17β-HSD3 enzyme. The interconversion of substrate by 17β-HSD3 and the 17β-HSD3 inhibiting activity of chemical compounds in these cell lines were detected by HPLC system.
Varying amounts of the test compounds were incubated in the growth medium of the 17β-HSD3 expressing cells together tritium labeled androstenedione (2 nM). The medium samples were removed after exact incubation time and the reaction is stopped by trichloroacetic acid (TCA). The samples were analyzed by HPLC-coupled flow scintillation analysis.
Conversion: The 17β-HSD3 inhibiting activity of an individual test compound was calculated by comparing the conversion of a control sample without any test compound (referred to as “Negative Control”) to the (reduced) conversion of the test sample containing the particular compound to be tested (referred to as “Test Sample”).

[2] = target: T2, recombinant human 17β-HSD2 (Homo sapiens, UniProt P37059); test: Recombinant 17β-HSD2 assay (HPLC, 3H-estradiol conversion); format: biochemical; settings: 50 nM estradiol, 1 mM β-NAD, read-out: Inhibition of rec. 17β-HSD2; for inhibition at 0.1 µM: 100 nM compound; for inhibition at 1 µM: 1 μm compound
T2 construct: made in house; host or cells: Sf9 insect cells (baculovirus, Bac to Bac Expression System)
T2 sequence (P37059 1-387): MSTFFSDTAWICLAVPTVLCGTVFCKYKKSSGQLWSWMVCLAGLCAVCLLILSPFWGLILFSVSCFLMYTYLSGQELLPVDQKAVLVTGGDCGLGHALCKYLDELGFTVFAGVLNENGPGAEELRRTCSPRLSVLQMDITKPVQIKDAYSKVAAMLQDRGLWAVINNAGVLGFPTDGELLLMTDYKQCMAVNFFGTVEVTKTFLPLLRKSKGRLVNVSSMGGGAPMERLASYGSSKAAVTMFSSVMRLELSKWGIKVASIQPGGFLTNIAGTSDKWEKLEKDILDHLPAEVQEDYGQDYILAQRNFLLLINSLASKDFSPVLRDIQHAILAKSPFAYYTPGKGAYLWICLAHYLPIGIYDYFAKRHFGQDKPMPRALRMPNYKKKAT
Description: 17β-HSD1 or 17β-HSD2 purification: Recombinant 17β-HSD1 and 17β-HSD2 baculoviruses were generated by the “Bac to Bac Expression System” (Invitrogen). Recombinant 17β-HSD1 or 17β-HSD2 bacmids were transfected to Sf9 insect cells using “Cellfectin Reagent” (Invitrogen). 60 h later cells were harvested; the fractions including 17β-HSD1 or 17β-HSD2 were isolated as described by Puranen et al. (1994). Aliquots were stored frozen until determination of enzymatic activity. Recombinant 17β-HSD2 assay: Recombinant 17β-HSD2 assay was performed as described for 17β-HSD1 but with following modifications: 6 μg/ml of recombinant protein homogenate, 50 nM Estradiol (Sigma, E8875) as a substrate, 800 000 cpm/ml ^3H-estradiol (PerkinElmer, NET317) as a tracer substrate and 1 mM β-NAD (Sigma N7004) as a co-factor were used. Total radioactivity for estrone and estradiol were determined in each sample and percent inhibition of estrone conversion by the respective inhibitor was calculated. For the calculation of % inhibition the following formula was used: [formula] Percent inhibition was calculated as follows: % inhibition=100−% conversion

[3] = target: T3, recombinant human 17β-HSD1 (Homo sapiens, UniProt P14061); test: Recombinant 17β-HSD1 assay (HPLC, 3H-estrone conversion); format: biochemical; settings: 30 nM estrone, 1 mM NADPH, 30 min RT, read-out: Inhibition of rec. 17β-HSD1; for inhibition at 0.1 µM: 100 nM compound; for inhibition at 1 µM: 0.5 h, 1 μm compound
T3 construct: made in house; host or cells: Sf9 insect cells (baculovirus, Bac to Bac Expression System)
T3 sequence (P14061 1-328): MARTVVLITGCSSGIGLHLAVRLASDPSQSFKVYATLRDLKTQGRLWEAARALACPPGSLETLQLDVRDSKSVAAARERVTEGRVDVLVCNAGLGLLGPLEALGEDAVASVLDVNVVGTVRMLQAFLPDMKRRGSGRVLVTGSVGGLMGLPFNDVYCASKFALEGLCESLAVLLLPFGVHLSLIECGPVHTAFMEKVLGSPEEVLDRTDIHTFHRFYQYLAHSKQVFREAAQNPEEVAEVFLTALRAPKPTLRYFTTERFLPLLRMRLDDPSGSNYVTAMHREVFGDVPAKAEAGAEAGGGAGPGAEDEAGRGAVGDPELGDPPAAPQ
Description: 17β-HSD1 or 17β-HSD2 purification: Recombinant 17β-HSD1 and 17β-HSD2 baculoviruses were generated by the “Bac to Bac Expression System” (Invitrogen). Recombinant 17β-HSD1 or 17β-HSD2 bacmids were transfected to Sf9 insect cells using “Cellfectin Reagent” (Invitrogen). 60 h later cells were harvested; the fractions including 17β-HSD1 or 17β-HSD2 were isolated as described by Puranen et al. (1994). Aliquots were stored frozen until determination of enzymatic activity.
Recombinant 17β-HSD1 assay: Recombinant protein homogenate (0.1 μg/ml) was incubated in 20 mM KH2PO4 pH 7.4 reaction buffer, including protease inhibitors (Complete Protease Inhibitor Cocktail tablet, Roche Diagnostics, 1697498), with 30 nM estrone (Sigma, E9750) as substrate, 800 000 cpm/ml ^3H-estrone (PerkinElmer, NET319001MC) as a tracer substrate, and 1 mM NADPH (Sigma, N1630) as a co-factor for 30 min at RT, in the presence of potential inhibitors at concentrations of 1 μM or 0.1 μM. Inhibitor stock solutions were prepared in DMSO. The enzyme reaction was stopped by addition of trichloroacetic acid (1% final concentration). Samples were centrifuged in a microtiter plate at 4000 rpm for 10 min. Supernatants were applied to reverse phase HPLC on a Waters Symmetry C18 column, equipped with a Waters Sentry Guard column. Isocratic HPLC runs were performed at RT at a flow rate of 1 ml/min of acetonitrile:water 48:52 as running solvent. Radioactivity was monitored in the eluate by a Packard Flow Scintillation Analyzer. Total radioactivity for estrone and estradiol were determined in each sample and percent inhibition of estradiol conversion by the respective inhibitor was calculated
For the calculation of % inhibition the following formula was used:
[formula] Percent inhibition was calculated as follows: % inhibition=100−% conversion

In the case of `Cc1cnc(NC(=O)CC[C@@H]2CC(F)(F)[C@@]3(C)CC[C@@H]4c5ccc(C(N)=O)cc5CC[C@H]4[C@H]23)s1` [Compound 8, 17,17-difluoro-15beta-{3-[(5-methyl-1,3-thiazol-2-yl)amino]-3-oxopropyl}estra-1(10),2,4-triene-3-carboxamide], the inhibition at 1 µM [1] is reported as 4% and the inhibition at 10 µM [1] is reported as 46%.
Compound `C[C@]12CC[C@@H]3c4ccc(B(O)O)cc4CC[C@H]3[C@@H]1[C@@H](CCCC(=O)Nc1ccc3c(c1)OCO3)CC2=O` [Compound 13, [15alpha-[4-(1,3-benzodioxol-5-ylamino)-4-oxobutyl]-17-oxoestra-1(10),2,4-trien-3-yl]boronic acid] has an inhibition at 0.1 µM [2] of -7.6%, an inhibition at 1 µM [2] of 2% and an inhibition at 0.1 µM [3] of 27%. It also gave an inhibition at 1 µM [3] of 52%, an inhibition at 1 µM [1] of 18% and an inhibition at 10 µM [1] of 22%.
Work on `C[C@]12CC[C@@H]3c4ccc(B(O)O)cc4CC[C@H]3[C@@H]1[C@@H](CCCC(=O)NC1CCCCC1)CC2=O` [Compound 17, [15alpha-[4-(cyclohexylamino)-4-oxobutyl]-17-oxoestra-1(10),2,4-trien-3-yl]boronic acid] yielded an inhibition at 0.1 µM [2] of -5.4%, an inhibition at 1 µM [2] of 1.8% and an inhibition at 0.1 µM [3] of 24%. The inhibition at 1 µM [3] was 31%, the inhibition at 1 µM [1] was 6% and the inhibition at 10 µM [1] was 45%.
`C[C@]12CC[C@@H]3c4ccc(B(O)O)cc4CC[C@H]3[C@@H]1[C@@H](CCCC(=O)N1CCCCC1)CC2=O` [Compound 20, [17-oxo-15alpha-(4-oxo-4-piperidin-1-ylbutyl)estra-1(10),2,4-trien-3-yl]boronic acid] gave an inhibition at 1 µM [1] of 15% and an inhibition at 10 µM [1] of 57%.
`C[C@]12CC[C@@H]3c4ccc(B(O)O)cc4CC[C@H]3[C@@H]1[C@@H](CCCC(=O)NC1CCCCC1)CC2(F)F` [Compound 48, [15alpha-[4-(cyclohexylamino)-4-oxobutyl]-17,17-difluoroestra-1(10),2,4-trien-3-yl]boronic acid] gave an inhibition at 0.1 µM [2] of 6.4%, an inhibition at 1 µM [2] of 12.8% and an inhibition at 0.1 µM [3] of 25%. For the same compound, the inhibition at 1 µM [3] was 50%, the inhibition at 1 µM [1] was 13% and the inhibition at 10 µM [1] was 63%.
With `CCN(CC)C(=O)CCC[C@H]1CC(F)(F)[C@@]2(C)CC[C@@H]3c4ccc(B(O)O)cc4CC[C@H]3[C@H]12` [Compound 49, [15alpha-[4-(diethylamino)-4-oxobutyl]-17,17-difluoroestra-1(10),2,4-trien-3-yl]boronic acid] the inhibition at 0.1 µM [2] was 7.7%, the inhibition at 1 µM [2] was 11.6% and the inhibition at 0.1 µM [3] was 29%. The inhibition at 1 µM [3] was 50%, the inhibition at 1 µM [1] was 62% and the inhibition at 10 µM [1] was 89%.
In the case of `C[C@]12CC[C@@H]3c4ccc(B(O)O)cc4CC[C@H]3[C@@H]1[C@@H](CCCC(=O)NCc1cccnc1)CC2(F)F` [Compound 53, [17,17-difluoro-15alpha-{4-oxo-4-[(pyridin-3-ylmethyl)amino]butyl}estra-1(10),2,4-trien-3-yl]boronic acid], the inhibition at 0.1 µM [2] is reported as 5%, the inhibition at 1 µM [2] is reported as 8.6% and the inhibition at 0.1 µM [3] is reported as 19%. It also gave an inhibition at 1 µM [3] of 50%, an inhibition at 1 µM [1] of 4% and an inhibition at 10 µM [1] of 50%.
`C[C@]12CC[C@@H]3c4ccc(B(O)O)cc4CC[C@H]3[C@@H]1[C@@H](CCCC(=O)N1CCCCC1)CC2(F)F` [Compound 57, [17,17-difluoro-15alpha-(4-oxo-4-piperidin-1-ylbutyl)estra-1(10),2,4-trien-3-yl]boronic acid] was tested, and the inhibition at 1 µM [1] was 28% and the inhibition at 10 µM [1] was 78%.
With `C[C@]12CC[C@@H]3c4ccc(B(O)O)cc4CC[C@H]3[C@@H]1[C@H](CCC(=O)NCc1ccc3c(c1)OCO3)CC2(F)F` [Compound 60, [15beta-{3-[(1,3-benzodioxol-5-ylmethyl)amino]-3-oxopropyl}-17,17-difluoroestra-1(10),2,4-trien-3-yl]boronic acid] the inhibition at 0.1 µM [2] was 9.5%, the inhibition at 1 µM [2] was 12.5% and the inhibition at 0.1 µM [3] was 46%. It also gave an inhibition at 1 µM [3] of 71%, an inhibition at 1 µM [1] of 28% and an inhibition at 10 µM [1] of 67%.
In the case of `C[C@]12CC[C@@H]3c4ccc(B(O)O)cc4CC[C@H]3[C@@H]1[C@H](CCC(=O)NCc1ccccc1)CC2(F)F` [Compound 63, [15beta-[3-(benzylamino)-3-oxopropyl]-17,17-difluoroestra-1(10),2,4-trien-3-yl]boronic acid], the inhibition at 0.1 µM [2] is reported as 12.8%, the inhibition at 1 µM [2] is reported as 16.9% and the inhibition at 0.1 µM [3] is reported as 51%. The inhibition at 1 µM [3] was 66%, the inhibition at 1 µM [1] was 41% and the inhibition at 10 µM [1] was 88%.
Work on `Cc1cccc2c(CCNC(=O)CC[C@@H]3CC(F)(F)[C@@]4(C)CC[C@@H]5c6ccc(B(O)O)cc6CC[C@H]5[C@H]34)c[nH]c12` [Compound 67, [17,17-difluoro-15beta-(3-{[2-(7-methyl-1H-indol-3-yl)ethyl]amino}-3-oxopropyl)estra-1(10),2,4-trien-3-yl]boronic acid] yielded an inhibition at 0.1 µM [2] of 10%, an inhibition at 1 µM [2] of 15.8% and an inhibition at 0.1 µM [3] of 47%. For the same compound, the inhibition at 1 µM [3] was 66%, the inhibition at 1 µM [1] was 40% and the inhibition at 10 µM [1] was 84%.
With `C[C@]12CC[C@@H]3c4ccc(NCc5ccccc5)cc4CC[C@H]3[C@@H]1[C@@H](CCCC(=O)N1CCOCC1)CC2=O` [Compound 98, 3-(benzylamino)-15alpha-(4-morpholin-4-yl-4-oxobutyl)estra-1(10),2,4-trien-17-one] the inhibition at 1 µM [1] was 15% and the inhibition at 10 µM [1] was 48%.
